According to US20180237362A1, “NOVEL POLYGODIAL ANALOGS FOR THE TREATMENT OF CANCER AND OTHER PROLIFERATIVE DISEASES” (THE BOARD OF REGENTS OF THE UNIVERSITY OF TAXAS SYSTEM, priority 2015, published 2018):
Read-outs that look alike come from different tables or passages of the source.

Tests used:
OSCC cell line HSC3 = test: Cell viability (Cell Titer 96 Aqueous), HSC3; type: cell-based, human; details: for reversal of cytotoxicity by N-acetyl-cysteine: 60 μM compound ± 10 mM NAC; for cancer cell viability, HSC3: 48 hours, potency order P10, polygodial, P3
Text: Human cancer cell lines were obtained from the American Type Culture Collection (ATCC, Manassas, Va., USA), the European Collection of Cell Culture (ECACC, Salisbury, UK) and the Deutsche Sammlung von Mikroorganismen und Zellkulturen (DSMZ, Braunschweig, Germany). The OSCC cell lines, Cal27 and HSC3 are derived from human primary tongue tumor. Cal27 cells were obtained from the American Type Culture Collection (Rockville, Md.). HSC3 cells were provided by Dr. Brian Schmidt. HeLa cells (cervical cancer cell line) were obtained from ATCC. Cells were cultured in DMEM, containing 10% FBS and 1% penicillin-streptomycin media, at 37° C. in 5% CO2. All cells were authenticated by Genetic DNA Laboratories.
The cytotoxicity of polygodial, P10, P3, and P27 in Cal27, HSC3, and HeLa cells was examined in vitro using a colorimetric assay, Cell Titer 96® Aqueous Non-Radioactive Cell Proliferation Assay. […] GraphPad Prism4 was used to perform statistical analysis.

[1] = test system: human MCF-7 breast cancer; test: MTT antiproliferative assay, MCF-7; type: cell-based; details: sextuplicates, read-out: GI50 in vitro values, MCF-7
Experimental: (§1) Human mammary carcinoma MCF-7 (ATCC HTB22) cells were cultured in RPMI supplemented with 10% FBS. The U87 cells (ATCC HTB-14) were cultured in DMEM culture medium, while the A549 cells (DSMZ ACC107) were cultured in RPMI culture medium supplemented with 10% heat-inactivated FBS. The GBM Hs683 (ATCC HTB-138) cells were cultivated in DMEM supplemented with 10% FBS. The human uterine sarcoma MES-SA (ATCC CRL1966) and MES-SA/D×5 cells were cultured in RPMI-1640 medium supplemented with 10% FBS with MES SA/D×5 maintained in the presence of 500 nM Doxorubicin (Sigma). SKMEL-28 cells (ATCC HTB72) and U373 GBM cells (ECACC 08061901) were cultured in RPMI culture medium supplemented with 10% heat-inactivated FBS. Cell culture media were supplemented with 4 mM glutamine (Lonza code BE17-605E), 100 μg/mL gentamicin (Lonza code 17-5182), and penicillin-streptomycin (200 units/ml and 200 μg/ml) (Lonza code 17-602E). The MDA-MB-231 (ATCC HTB-26) epithelial mammary adenocarcinoma cells were cultured in Eagle's minimum essential medium (EMEM; Invitrogen) containing 5% fetal calf serum (FCS, Cambrex), 2 mM L-glutamine (Invitrogen), 0.06% HEPES (Invitrogen) and penicillin (50 IU/ml)/streptomycin (50 µg/ml; Invitrogen) at 37° C. in a humidified atmosphere of 5% CO2 in air. Transformed mouse NPCs were cultured in suspension under neurosphere conditions at 37° C. in a humidified atmosphere of […] and 5% CO2 in DMEM F12 (Invitrogen 11320-074) supplemented with 1×B27 supplement (Invitrogen 17504-044), 5% penicillin-streptomycin (Biochrom 10378-017), 10 ng/ml EGF (R&D systems 236-EG), 10 ng/ml FGF (PeproTech 100-18B).
(§2) Antiproliferative properties of the synthesized compounds were evaluated by the MTT assay. All compounds were dissolved in DMSO at a concentration of either 100 μM or 50 μM prior to cell treatment. The cells were trypsinized and seeded at various cell concentrations depending on the cell type. The cells were grown for 24 h to 72 h, treated with compounds at concentrations ranging from 0.001 to 100 μM and incubated for 48 or 72 h in 100 or 200 μL media depending on the cell line used. The number of experiments and replicates varied depending on the cell line. Cells treated with 0.1% DMSO were used as a negative control; 1 μM PAO was used as a positive control.
(§3) The synthesized C12-Wittig derivatives were evaluated for antiproliferative activities in a panel of cancer cell lines that included apoptosis-resistant human U373 glioblastoma (GBM) (Lefranc et al., 2013), human A549 non-small cell lung cancer (NSCLC) and human SKMEL-28 melanoma (Mathieu et al., 2009) as well as apoptosis-sensitive human Hs683 anaplastic oligodendroglioma (Lefranc et al., 2013) and human MCF-7 breast cancer (Frolova et al., 2013).

HSC3 cells [2] = test: Calcium imaging, HSC3; type: cell-based, human; details: for calcium influx, HSC3: polygodial 80 μM, P10 4 μM, P3 50 μM
[3] = test system: panel of cancer cell lines (A549, SKMEL-28, MCF-7, U373, Hs683); test: MTT antiproliferative assay, panel of five cancer cell lines; type: cell-based, human; details: for GI50: mean over five cell lines, 72 h treatment, MTT assay, read-out: GI50 in vitro values, Mean + SEM
Experimental: as §2, §3

HSC3 cells [4] = test: Morphological changes, HSC3; type: cell-based, human; details: P3 50 μM, 1 hour
Experimental: FIGS. 12A-B Morphological changes (20×) in HeLa cells (FIG. 12Aa-d) and HSC3 cells (FIG. 12Ba-d) with no treatment (a) or treated with Polygodial 80 μM (b), P10 4 μM (c), and P3 50 μM (d) for 1 hour. Differences in morphological changes between treatments indicate potentially unique mechanisms-of-action between polygodial and P10 (isomer), and P3 (novel analog).

[5] = test system: uterine sarcoma MES-SA cells; test: MTT antiproliferative assay, MES-SA; type: cell-based, human; details: 48 h treatment, relative to DMSO control, read-out: GI50 in vitro values, MES-SA
Experimental: as §1
Antiproliferative properties of the synthesized compounds were evaluated by the MTT assay. All compounds were dissolved in DMSO at a concentration of either 100 μM or 50 μM prior to cell treatment. The cells were trypsinized and seeded at various cell concentrations depending on the cell type. […]

Row | GI50 ([1]; Homo sapiens, MCF7, 72 h treatment) | GI50 ([3]; Homo sapiens) | SMILES | reversal of cytotoxicity by N-acetyl-cysteine (OSCC cell line HSC3) | cancer cell viability, HSC3 (OSCC cell line HSC3) | reversal of calcium influx by capsazepine, HSC3 (HSC3 cells [2]; CPZ 10 μM) | calcium influx, HSC3 (HSC3 cells [2]) | antiproliferative activity in the cancer cell panel ([3]; 72-hour treatment) | morphological changes, HSC3 (HSC3 cells [4]) | GI50 [5] | GI50 ([1]; 72 h treatment) | resistant populations in growth curves ([3]; all 5 cultures, concentrations just slightly exceeding GI50, close to 0% cell viability) | GI50 [3]
1 | 75 µM | > 85 µM | CC1(C)CCC[C@]2(C)[C@@H](C=O)C(C=O)=CC[C@@H]12 [Compound 1, Polygodial] | Cytotoxicity was reversible | reduced cancer cell viability in vitro | inhibited by CPZ | did induce calcium influx | ineffective | – | – | – | – | –
2 | – | – | COC(=O)/C=C/C1=CC[C@H]2C(C)(C)CCC[C@]2(C)[C@H]1C=O [Compound 5] | Cytotoxicity was reversible | reduced cancer cell viability in vitro | – | did not induce calcium influx | – | apoptotic figures | 40 µM | 7 µM | absence of resistant populations | 20 ± 3 µM
